pIC50: −log10 of the molar value. Where two headings read alike, the source gives them in different places.
How the values were obtained:
[1] = molecular target: SHP-2 enzyme (Met1-Leu525) (Homo sapiens (Human), UniProt Q06124); test: SHP2 inhibition enzymatic assay; type: biochemical; details: 0.5 nM SHP-2 activated by 500 nM IRS1 peptide, 75 μM DiFMUP substrate; read-out: SHP2wt-IC50
How it was run: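 Compounds were preincubated 30 min with 0.5 nM SHP-2 (Met1-Leu525) plus 500 nM IRS1 activating peptide (pH 7.2 HEPES, 5 mM DTT), then 75 μM DiFMUP substrate reacted 30 min at room temperature. After bpV quench, DiFMUP fluorescence gave % inhibition; four-parameter logistic fit yielded IC50.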

[2] = tested on: ERK phosphorylation in KYSE-520 cells; test: Phospho-ERK cellular assay; type: cell-based; details: KYSE-520 cells, 2 h at 37° C., phospho-ERK1/2 (Thr202/Tyr204) TR-FRET, read-out: PERK IC50
How it was run: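 TR-FRET read-out of ERK1/2 Thr202/Tyr204 phosphorylation was taken after overnight antibody incubation at room temperature. Before that, KYSE-520 cells were treated 2 h at 37 °C with compound dilutions and lysed 30 min. Percent inhibition relative to vehicle and cell-free wells was fitted four-parametrically to give IC50.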

SHP-2 enzyme (Met1-Leu525), sequence (Q06124 1-525): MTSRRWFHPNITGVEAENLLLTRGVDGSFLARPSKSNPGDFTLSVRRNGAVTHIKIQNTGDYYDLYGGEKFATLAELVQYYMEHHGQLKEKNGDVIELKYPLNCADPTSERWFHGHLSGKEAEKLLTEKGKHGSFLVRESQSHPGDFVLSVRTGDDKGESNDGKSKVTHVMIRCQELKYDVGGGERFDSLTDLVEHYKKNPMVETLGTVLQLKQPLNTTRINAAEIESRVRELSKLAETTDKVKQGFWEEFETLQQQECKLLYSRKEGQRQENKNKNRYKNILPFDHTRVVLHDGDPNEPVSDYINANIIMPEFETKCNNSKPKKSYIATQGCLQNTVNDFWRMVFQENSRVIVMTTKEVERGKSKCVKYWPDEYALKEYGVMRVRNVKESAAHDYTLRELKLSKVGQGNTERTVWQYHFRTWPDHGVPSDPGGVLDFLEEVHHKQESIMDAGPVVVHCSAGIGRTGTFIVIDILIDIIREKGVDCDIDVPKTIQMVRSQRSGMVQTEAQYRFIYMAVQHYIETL

pIC50 [1]	pIC50 ([2]; Homo sapiens, KYSE-520, 2 h)	pIC50 [2]	SMILES	pIC50 ([2]; Homo sapiens)
> 6.30	> 6.00	–	NC[C@]1(c2ccccc2F)[C@@H]2CCN(c3cnc4c(-c5cc6c(cc5Cl)NC(=O)C6=O)n[nH]c4n3)C[C@@H]21 [Example 375, 5-(6-((1S,6R,7R)-7-(aminomethyl)-7-(2-fluorophenyl)-3-azabicyclo[4.1.0]heptan-3-yl)-1H-pyrazolo[3,4-b]pyrazin-3-yl)-6-chloroindoline-2,3-dione]	–
> 6.30	> 6.00	–	NC[C@]1(c2ccccc2F)[C@@H]2CCN(c3cnc4c(-c5ccc(F)c6ncccc56)n[nH]c4n3)C[C@@H]21 [Example 376, ((1S,6R,7R)-7-(2-fluorophenyl)-3-(3-(8-fluoroquinolin-5-yl)-1H-pyrazolo[3,4-b]pyrazin-6-yl)-3-azabicyclo[4.1.0]heptan-7-yl)methanamine]	–
> 6.30	> 6.00	–	Cn1cc2c(Cl)c(-c3c[nH]c4nc(N5CC[C@@H]6[C@H](C5)[C@@]6(CN)c5ccccc5F)n(C)c(=O)c34)ccc2n1 [Example 378, 2-((1S,6R,7R)-7-(aminomethyl)-7-(2-fluorophenyl)-3-azabicyclo[4.1.0]heptan-3-yl)-5-(4-chloro-2-methyl-2H-indazol-5-yl)-3-methyl-3,7-dihydro-4H-pyrrolo[2,3-d]pyrimidin-4-one]	–
> 6.30	< 5.30	–	NC[C@]1(c2ccccc2F)[C@@H]2CCN(c3cnc4c(-c5cc(F)c(CO)c(F)c5)n[nH]c4n3)C[C@@H]21 [Example 381, (4-(6-((1S,6R,7R)-7-(aminomethyl)-7-(2-fluorophenyl)-3-azabicyclo[4.1.0]heptan-3-yl)-1H-pyrazolo[3,4-b]pyrazin-3-yl)-2,6-difluorophenyl)methanol]	–
< 5.52	> 6.00	–	CC(=O)NC[C@]1(c2ccccc2F)[C@@H]2CCN(c3cnc4c(-c5ccc6nn(C)cc6c5)n[nH]c4n3)C[C@@H]21 [Example 383, N-(((1S,6R,7R)-7-(2-fluorophenyl)-3-(3-(2-methyl-2H-indazol-5-yl)-1H-pyrazolo[3,4-b]pyrazin-6-yl)-3-azabicyclo[4.1.0]heptan-7-yl)methyl)acetamide]	–
> 6.30	> 6.00	–	NC[C@]1(c2ccccc2F)[C@@H]2CCN(c3cnc(Sc4ccnc(-n5cccn5)c4Cl)cn3)C[C@@H]21 [Example 388, ((1S,6R,7R)-3-(5-((3-chloro-2-(1H-pyrazol-1-yl)pyridin-4-yl)thio)pyrazin-2-yl)-7-(2-fluorophenyl)-3-azabicyclo[4.1.0]heptan-7-yl)methanamine]	–
> 6.30	< 5.30	–	NC[C@]1(c2ccccc2F)[C@@H]2CCN(c3cnc4c(-c5cnn(-c6ccccc6)c5)n[nH]c4n3)C[C@@H]21 [Example 390, ((1S,6R,7R)-7-(2-fluorophenyl)-3-(3-(1-phenyl-1H-pyrazol-4-yl)-1H-pyrazolo[3,4-b]pyrazin-6-yl)-3-azabicyclo[4.1.0]heptan-7-yl)methanamine]	–
> 6.30	> 6.00	–	NC[C@]1(c2ccccc2F)[C@@H]2CCN(c3cnc4nc(Sc5ccnc(N)c5Cl)ccc4n3)C[C@@H]21 [Example 395, 4-((2-((1S,6R,7R)-7-(aminomethyl)-7-(2-fluorophenyl)-3-azabicyclo[4.1.0]heptan-3-yl)pyrido[2,3-b]pyrazin-6-yl)thio)-3-chloropyridin-2-amine]	–
> 6.30	> 6.00	–	NC[C@]1(c2ccccc2F)[C@@H]2CCN(c3cnc4nc(Sc5ccnc(-n6cccn6)c5Cl)ccc4n3)C[C@@H]21 [Example 398, ((1S,6R,7R)-3-(6-((3-chloro-2-(1H-pyrazol-1-yl)pyridin-4-yl)thio)pyrido[2,3-b]pyrazin-2-yl)-7-(2-fluorophenyl)-3-azabicyclo[4.1.0]heptan-7-yl)methanamine]	–
> 6.30	–	> 6.00	COc1ccc(-c2n[nH]c3nc(N4CC[C@@H]5[C@H](C4)[C@@]5(CN)c4ccccc4F)cnc23)cc1F [Example 399]	–

The next lines start with the compound.

SMILES	pIC50 [1]	pIC50 ([2]; Homo sapiens, KYSE-520, 2 h)	pIC50 [2]	pIC50 ([2]; Homo sapiens)
NC[C@]1(c2ccccc2F)[C@@H]2CCN(c3cnc4c(-c5ccc6c(c5Cl)C(F)(F)C(=O)N6)n[nH]c4n3)C[C@@H]21 [Example 373, 5-(6-((1S,6R,7R)-7-(aminomethyl)-7-(2-fluorophenyl)-3-azabicyclo[4.1.0]heptan-3-yl)-1H-pyrazolo[3,4-b]pyrazin-3-yl)-4-chloro-3,3-difluoroindolin-2-one]	> 6.30	> 6.00	–	–
NC[C@]1(c2ccccc2F)[C@@H]2CCN(c3cnc4c(-c5ccc(O)c(F)c5F)n[nH]c4n3)C[C@@H]21 [Example 374, 4-(6-((1S,6R,7R)-7-(aminomethyl)-7-(2-fluorophenyl)-3-azabicyclo[4.1.0]heptan-3-yl)-1H-pyrazolo[3,4-b]pyrazin-3-yl)-2,3-difluorophenol]	> 6.30	> 6.00	–	–
Cc1nc(-c2ccc(-c3n[nH]c4nc(N5CC[C@@H]6[C@H](C5)[C@@]6(CN)c5ccccc5F)cnc34)c(Cl)c2)no1 [Example 377, ((1S,6R,7R)-3-(3-(2-chloro-4-(5-methyl-1,2,4-oxadiazol-3-yl)phenyl)-1H-pyrazolo[3,4-b]pyrazin-6-yl)-7-(2-fluorophenyl)-3-azabicyclo[4.1.0]heptan-7-yl)methanamine]	> 6.30	> 6.00	–	–
Cn1c(N2CC[C@@H]3[C@H](C2)[C@@]3(CN)c2ccccc2F)nc2[nH]cc(-c3ccc4c(=O)[nH]ccc4c3F)c2c1=O [Example 380, 6-(2-((1S,6R,7R)-7-(aminomethyl)-7-(2-fluorophenyl)-3-azabicyclo[4.1.0]heptan-3-yl)-3-methyl-4-oxo-4,7-dihydro-3H-pyrrolo[2,3-d]pyrimidin-5-yl)-5-fluoroisoquinolin-1(2H)-one]	> 6.30	> 6.00	–	–
NC[C@]1(c2ccccc2F)[C@@H]2CCN(c3cnc4c(ccn4-c4ccnc5ccccc45)n3)C[C@@H]21 [Example 382, ((1S,6R,7R)-7-(2-fluorophenyl)-3-(5-(quinolin-4-yl)-5H-pyrrolo[2,3-b]pyrazin-2-yl)-3-azabicyclo[4.1.0]heptan-7-yl)methanamine]	> 6.30	< 5.30	–	–
NC[C@]1(c2ccccc2F)[C@@H]2CCN(c3cnc(Sc4ccnc(N)c4Cl)c(N)n3)C[C@@H]21 [Example 384, 3-((2-amino-3-chloropyridin-4-yl)thio)-6-((1S,6R,7R)-7-(aminomethyl)-7-(2-fluorophenyl)-3-azabicyclo[4.1.0]heptan-3-yl)pyrazin-2-amine]	> 6.30	> 6.00	–	–
NC[C@]1(c2ccccc2F)[C@@H]2CCN(c3ccc4nc(Sc5ccnc(N)c5Cl)cnc4n3)C[C@@H]21 [Example 385, 4-((6-((1S,6R,7R)-7-(aminomethyl)-7-(2-fluorophenyl)-3-azabicyclo[4.1.0]heptan-3-yl)pyrido[2,3-b]pyrazin-2-yl)thio)-3-chloropyridin-2-amine]	> 6.30	–	–	> 6.00
NC[C@]1(c2ccccc2F)[C@@H]2CCN(c3cnc4c(-c5ccnc(N6CC[C@H](CO)C6)c5Cl)n[nH]c4n3)C[C@@H]21 [Example 386, ((S)-1-(4-(6-((1S,6R,7R)-7-(aminomethyl)-7-(2-fluorophenyl)-3-azabicyclo[4.1.0]heptan-3-yl)-1H-pyrazolo[3,4-b]pyrazin-3-yl)-3-chloropyridin-2-yl)pyrrolidin-3-yl)methanol]	> 6.30	> 6.00	–	–
COCCn1cc2c(Cl)c(-c3n[nH]c4nc(N5CC[C@@H]6[C@H](C5)[C@@]6(CN)c5ccccc5F)cnc34)ccc2n1 [Example 393, ((1S,6R,7R)-3-(3-(4-chloro-2-(2-methoxyethyl)-2H-indazol-5-yl)-1H-pyrazolo[3,4-b]pyrazin-6-yl)-7-(2-fluorophenyl)-3-azabicyclo[4.1.0]heptan-7-yl)methanamine]	> 6.30	> 6.00	–	–
Cn1cc2cc(-c3ccc4nc(N5CC[C@H]6[C@@H](C5)[C@]6(CN)c5ccccc5F)ccc4n3)ccc2n1 [Example 394, ((1R,6S,7S)-7-(2-fluorophenyl)-3-(6-(2-methyl-2H-indazol-5-yl)-1,5-naphthyridin-2-yl)-3-azabicyclo[4.1.0]heptan-7-yl)methanamine]	< 5.52	> 6.00	–	–
Cn1cnc2ccc(-c3n[nH]c4nc(N5CC[C@@H]6[C@H](C5)[C@@]6(CN)c5cc(F)ccc5F)cnc34)c(Cl)c21 [Example 396, ((1S,6R,7R)-3-(3-(7-chloro-1-methyl-1H-benzo[d]imidazol-6-yl)-1H-pyrazolo[3,4-b]pyrazin-6-yl)-7-(2,5-difluorophenyl)-3-azabicyclo[4.1.0]heptan-7-yl)methanamine]	> 6.30	> 6.00	–	–
NC[C@]1(c2ccccc2F)[C@@H]2CCN(c3cnc4c(Sc5ccnc(N)c5Cl)n[nH]c4n3)C[C@@H]21 [Example 397, 4-((6-((1S,6R,7R)-7-(aminomethyl)-7-(2-fluorophenyl)-3-azabicyclo[4.1.0]heptan-3-yl)-1H-pyrazolo[3,4-b]pyrazin-3-yl)thio)-3-chloropyridin-2-amine]	> 6.30	> 6.00	–	–
